Where two headings read alike, the source gives them in different places.
How the values were obtained:
LY180 [1] = assay: pH-controlled xylose fermentation with 5-HMF, LY180; type: cell-based, Escherichia coli; conditions: 1.0 g l^-1 5-HMF, 100 g l^-1 xylose
Procedure: (§1) Strains and plasmids used in this study have been previously described (70 and 23). These include LY180 (an ethanologenic derivative of E. coli), EMFR9 (furfural-tolerant derivative of LY180), LY180ΔyqhD, LY180ΔdkgA, LY180ΔyqhD ΔdkgA, pLOI4301 containing yqhD. Plasmids pLOI4303 containing dkgA (48), and pLOI4316 containing pntAB (70) were also used. Cultures were grown at 37° C. in AM1 minimal media (23) containing 20 g 1^−1 xylose (solid medium), 50 g l^−1 xylose (Bioscreen C growth analyzer and tube cultures), or 100 g 1^−1 (pH-controlled fermentations).
(§2) For fermentation experiments, seed cultures of LY180 and EMFR9 were grown overnight in small fermentors (37° C., 200 rpm) containing 350 ml of AM1 medium. Broth was maintained at pH 6.5 by the automatic addition of 2 N KOH. Upon reaching mid-log phase, experimental fermenters were inoculated to an initial cell density of 0.1 OD550nm. (33 mg dry cell weight 1^−1). Cell mass (OD550nm) and furan levels were monitored at 12-h intervals as described previously (20).

EMFR9 = assay: pH-controlled xylose fermentation with 5-HMF, EMFR9; type: cell-based, Escherichia coli
Procedure: as §1, §2

LY180 [2] = assay: 5-HMF tolerance in tube cultures, LY180, with cysteine supplements; type: cell-based, Escherichia coli
Procedure: FIG. 17. Effect of L-cysteine on 5-HMF tolerance of LY180. Experiments were performed in tube cultures with AM1 medium containing 50 g l^−1 xylose and 5-HMF (24 h incubation). Cultures were supplemented with filter-sterilized L-cysteine as indicated. All data are plotted as a mean with standard deviation (n=4). A. 1.0 g l^−1 5-HMF; B. 2.0 g 1^−1 5-HMF.
Tolerance to HMF was tested using 13×100 mm closed tubes containing 4 ml AM1 and 5-HMF as indicated. When appropriate, antibiotics were included for plasmid maintenance. Tubes were inoculated to an initial density of 0.05 OD550nm. Growth was measured after incubation (60 rpm) for 48 h using a Spectronic 20D+ spectrophotometer (Thermo, Waltham, Mass.). To examine the effects of pntAB on furan tolerance, a multiwall plate containing 400 μl of AM1 (and 5-HMF or furfural) per well was inoculated as above. OD(420-580nm bandwidth) was measured for 72 h using a Bioscreen C growth analyzer (Oy Growth Curves, Helsinki, Finland).

E. coli LY180 [3] = type: cell-based, Escherichia coli; conditions: for relief of furfural inhibition of growth by alternative sulfur source / furfural resistance (growth of LY180) with individual amino acid: AM1 medium; for furfural resistance (growth of LY180) with individual amino acid: amino acid 0.1 mM, 50 g liter^-1 xylose, 37 C, 48 hours
Procedure: Furfural tolerance was examined by measuring growth in standing tubes with 4 mL total volume of AM1 and 50 g liter^−1 filter-sterilized xylose as described previously (48). Tubes were incubated at 37° C. and measured after 24 hours and 48 hours. Values reported are an average of 4 measurements.
All 20 amino acids were individually tested for their ability to improve the growth of LY180 in AM1 mineral salts medium (FIG. 9A). A concentration of 0.1 mM was selected roughly based on the cellular content of individual amino acids (50).
During growth in AM1 medium containing 1 g liter^−1 furfural, the effects of alternative sulfur sources (L-cysteine, D-cysteine, taurine, and sodium thiosulfate) that enter metabolism at different levels of reduction (FIG. 9D) was compared. Note that 4 NADPH molecules and two reductase enzymes (CysH and CysIJ) are required to fully reduce sulfate prior to assimilation into cysteine. […] D-cysteine cannot be incorporated directly and is first catabolized to H2S (49). Thiosulfate also serves as a source of reduced sulfur for incorporation by CysM (47). Taurine is catabolized to sulfite in the cytoplasm and must be reduced by sulfite reductase (CysIJ and 3 NADPH molecules) prior to assimilation into cysteine (54).

[4] = biological target: sulfite reductase (CysIJ) (Escherichia coli, UniProt P38038); conditions: read-out: Km for NADPH; cited from earlier work
Chain of sulfite reductase (CysIJ) (P38038 2-599): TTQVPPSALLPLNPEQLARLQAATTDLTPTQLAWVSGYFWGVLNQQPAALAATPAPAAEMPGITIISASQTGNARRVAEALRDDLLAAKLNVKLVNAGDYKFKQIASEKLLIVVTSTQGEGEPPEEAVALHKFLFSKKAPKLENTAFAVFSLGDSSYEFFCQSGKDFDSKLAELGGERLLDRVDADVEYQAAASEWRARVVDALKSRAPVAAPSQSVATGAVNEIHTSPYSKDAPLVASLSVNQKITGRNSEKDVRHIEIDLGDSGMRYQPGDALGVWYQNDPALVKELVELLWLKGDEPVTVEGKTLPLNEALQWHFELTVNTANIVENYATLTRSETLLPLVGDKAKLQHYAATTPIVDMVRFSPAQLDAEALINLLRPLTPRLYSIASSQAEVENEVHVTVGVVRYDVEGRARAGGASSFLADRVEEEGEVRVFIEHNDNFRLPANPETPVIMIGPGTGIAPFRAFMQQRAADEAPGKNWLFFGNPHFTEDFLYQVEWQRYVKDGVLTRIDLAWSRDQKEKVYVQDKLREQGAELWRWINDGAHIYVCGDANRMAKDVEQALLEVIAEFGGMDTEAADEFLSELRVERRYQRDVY
Chain of sulfite reductase (CysIJ) (P17846 2-570, further chain): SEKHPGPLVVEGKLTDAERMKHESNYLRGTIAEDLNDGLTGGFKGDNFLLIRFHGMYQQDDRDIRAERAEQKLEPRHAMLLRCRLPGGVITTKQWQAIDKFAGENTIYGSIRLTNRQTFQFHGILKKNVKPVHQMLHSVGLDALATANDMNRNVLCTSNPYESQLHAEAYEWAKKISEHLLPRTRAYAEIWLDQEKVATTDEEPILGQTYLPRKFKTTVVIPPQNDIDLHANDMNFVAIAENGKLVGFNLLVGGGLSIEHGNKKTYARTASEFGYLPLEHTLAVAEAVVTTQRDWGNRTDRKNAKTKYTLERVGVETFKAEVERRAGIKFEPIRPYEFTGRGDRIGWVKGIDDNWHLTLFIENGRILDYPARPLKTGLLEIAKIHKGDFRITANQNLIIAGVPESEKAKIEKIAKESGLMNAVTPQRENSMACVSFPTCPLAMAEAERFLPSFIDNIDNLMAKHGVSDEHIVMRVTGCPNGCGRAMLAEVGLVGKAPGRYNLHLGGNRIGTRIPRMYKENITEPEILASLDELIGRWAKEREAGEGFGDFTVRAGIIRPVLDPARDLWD

YqhD = YqhD (Escherichia coli, UniProt Q46856); conditions: cited from earlier work
Chain of YqhD (Q46856 whole entry): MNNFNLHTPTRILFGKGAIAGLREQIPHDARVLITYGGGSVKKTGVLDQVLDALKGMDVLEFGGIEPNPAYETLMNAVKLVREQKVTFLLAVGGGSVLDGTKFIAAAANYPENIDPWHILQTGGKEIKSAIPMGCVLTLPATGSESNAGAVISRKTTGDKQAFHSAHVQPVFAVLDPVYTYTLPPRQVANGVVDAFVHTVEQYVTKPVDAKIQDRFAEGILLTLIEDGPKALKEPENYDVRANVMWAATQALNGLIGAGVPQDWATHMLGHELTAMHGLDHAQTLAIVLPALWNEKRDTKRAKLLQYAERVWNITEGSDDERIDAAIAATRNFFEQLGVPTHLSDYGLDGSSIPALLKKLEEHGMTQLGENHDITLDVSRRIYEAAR

DkgA = DkgA (Escherichia coli, UniProt Q46857); conditions: read-out: apparent Km for NADPH; cited from earlier work
Chain of DkgA (Q46857 whole entry): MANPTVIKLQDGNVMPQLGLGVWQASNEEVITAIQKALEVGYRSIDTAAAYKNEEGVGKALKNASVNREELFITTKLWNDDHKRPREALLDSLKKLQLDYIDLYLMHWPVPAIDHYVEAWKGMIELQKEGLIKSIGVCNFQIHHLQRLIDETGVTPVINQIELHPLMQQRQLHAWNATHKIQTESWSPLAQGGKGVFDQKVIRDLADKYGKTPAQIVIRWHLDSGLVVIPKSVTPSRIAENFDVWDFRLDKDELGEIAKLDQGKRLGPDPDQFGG

E. coli LY180 [5] = type: cell-based, Escherichia coli; conditions: amino acid 0.5 mM, 1 g liter^-1 furfural, AM1 medium, 48 hours
LY180 strains = assay: Growth of LY180 strains carrying plasmids in the presence of furfural; type: cell-based, Escherichia coli; conditions: 0.10% furfural, after 48 hours
Procedure: LY 180 strains were grown on LB glucose ampicillin plates overnight and each were used to inoculate a tube of AM1 xylose to 3-4 OD. This culture was immediately used to inoculate […] capped tubes containing 4 mL AM1 5% xylose, ampicillin, and an indicated concentration of furfural to 0.05 initial OD. Cultures were grown in a water bath at 37 C and OD 500 nm readings were taken after 24 and 48 hours.
PntAB is a proton translocating transhydrogenase that is not known to function during fermentative growth but is potentially capable of increasing the pool of NADPH (52). In examples 2 and 3, the E. coli […] transhydrogenase PntAB was cloned into pTrc99a and confirmed by sequencing. PntAB with native ribosomal binding site and rho dependent terminator was polymerase chain reaction (PCR) amplified from E. coli strain LY180 genomic DNA using primers with HindIII digestible ends. The PCR product and pTrc099a were HindIII digested, purified using a Qiagen Qiaprep Spin Miniprep Kit, and ligated together using T4 Quick DNA ligase. After transforming the resulting vector into TOP10F′, the plasmid was extracted and used to transform LY180. Orientation was verified by PCR analysis. The empty vector served as a control. Inducer was added prior to inoculation. The growth of LY180 strains carrying plasmids having increasing expression of pntA and pntB genes was compared (FIG. 2A-2B). […]

E. coli LY180 [6] = assay: Microarray analysis of LY180 after furfural addition; type: cell-based, Escherichia coli
Procedure: Cultures were grown in small fermenters to a density of 670 mg dcw liter^−1. An initial sample was removed that served as a control. Furfural was immediately added from a 50 g liter^−1 aqueous stock (0.5 g liter^−1 final concentration) and incubation continued for 15 minutes prior to a second sampling. Samples were rapidly cooled in an ethanol-dry ice bath, harvested by centrifugation at 4° C., resuspended in Qiagen RNA Later and stored at −80° C. RNA was extracted using a Qiagen RNeasy Mini Kit, treated with DNase I and purified by phenol/chloroform extraction and ethanol precipitation. RNA was sent to NimbleGen (Madison, Wis.) for microarray comparisons using probes designed for E. coli K12. Each sample consisted of pooled material from four fermenters. The complete experiment was performed twice and the data was averaged (8 fermentors). Data was analyzed using ArrayStar (DNA Star, Madison, Wis.) and SimPheny software (Genomatica Inc., San Diego, Calif.). Expression ratios are presented as the average of the two pooled datasets.
Message levels were compared in actively growing cells before and 15 min after the addition of 0.5 g liter^−1 furfural. A water control was also included for comparison. […]

[7] = Stability of furfural in mineral salts medium; type: physicochemical; conditions: 48 incubation at 37 C
Procedure: Protective concentrations of cysteine (0.05 mM) were 200-fold lower than that of 1 g liter^−1 furfural (10 mM).

O=Cc1ccc(CO)o1 [5-HMF, 5-hydroxymethyl furfural]
growth of LY180 (LY180 [1]): completely inhibited
effect on cell yield or ethanol yield of EMFR9 (EMFR9; 1.0 g l^-1 5-HMF, fermentation): no detrimental effect
ethanol production and growth of EMFR9 (EMFR9; 2.5 g 5-HMF l^-1, fermentation): slowed
time to completion of ethanol production and growth of EMFR9 (EMFR9; 2.5 g 5-HMF l^-1, fermentation): 96 h
growth of LY180 (LY180 [2]; 1 g l^-1 5-HMF, tube cultures, 24 h): partially inhibited

N[C@H](CS)C(=O)O [D-cysteine]
relief of furfural inhibition of growth by alternative sulfur source (E. coli LY180 [3]; 1 g liter^-1 furfural): effective

NC(=O)C1=CN([C@@H]2O[C@H](COP(=O)(O)OP(=O)(O)OC[C@H]3O[C@@H](n4cnc5c(N)ncnc54)[C@H](OP(=O)(O)O)[C@@H]3O)[C@@H](O)[C@H]2O)C=CC1 [NADPH]
Km [4]: 80 µM
Km (YqhD; read-out: Km for NADPH): 8 µM
Km (YqhD; read-out: apparent Km for NADPH): 8 µM
Km (DkgA): 23 µM

N=C(N)NCCC[C@H](N)C(=O)O [arginine]
furfural resistance (growth of LY180) with individual amino acid (E. coli LY180 [3]; 1 g liter^-1 furfural): improved furfural resistance

N[C@@H](CS)C(=O)O [cysteine, L-cysteine]
protective concentration against furfural (E. coli LY180 [3]; 1 g liter^-1 furfural (10 mM)): 0.05 mM
relief of furfural inhibition of growth by alternative sulfur source (E. coli LY180 [3]; 1 g liter^-1 furfural): effective
furfural resistance (growth of LY180) with individual amino acid (E. coli LY180 [3]; 1 g liter^-1 furfural): improved furfural resistance
improvement in furfural resistance (E. coli LY180 [3]; cysteine 0.01 mM): No measurable improvement
density to which LY180 grew (E. coli LY180 [3]; cysteine 0.05 mM, 1 g liter^-1 furfural): 0.8 g/L
growth of LY180 with cysteine supplement (LY180 [2]; 100 uM cysteine, 1 g l^-1 5-HMF): completely restored
growth of LY180 with cysteine supplement (LY180 [2]; 100 uM or 1000 uM cysteine, 2.5 g l^-1 5-HMF): not restored
effect of cysteine supplements on the MIC for 5-HMF (LY180 [2]; LY180): did not increase
furfural resistance (growth of LY180) with individual amino acid (E. coli LY180 [5]): most effective

O=Cc1ccco1 [furfural]
growth of LY180 strains other than pTrc99a-pntAB forward (LY180 strains): substantially stopped growing
genes with expression altered two-fold or greater (E. coli LY180 [6]; 0.5 g liter^-1 furfural, 15 min): approximately 400 genes
up-regulation of YqhD and DkgA (mRNA) (E. coli LY180 [6]; addition of furfural, parent LY180): over 5 fold
furfural in mineral salts medium, by characteristic spectrum [7]: remained unchanged

OCC(O)CO [glycerol]
effect on furfural tolerance (E. coli LY180 [3]; glycerol 1.0 to 20 g liter^-1, data not included): no effect

N[C@@H](Cc1c[nH]cn1)C(=O)O [histidine]
furfural resistance (growth of LY180) with individual amino acid (E. coli LY180 [3]; 1 g liter^-1 furfural): improved furfural resistance

CSCC[C@H](N)C(=O)O [methionine]
furfural resistance (growth of LY180) with individual amino acid (E. coli LY180 [3]; 1 g liter^-1 furfural): improved furfural resistance

N[C@@H](CO)C(=O)O [serine]
furfural resistance (growth of LY180) with individual amino acid (E. coli LY180 [3]; 1 g liter^-1 furfural): improved furfural resistance

NCCS(=O)(=O)O [taurine]
relief of furfural inhibition of growth by alternative sulfur source (E. coli LY180 [3]; 1 g liter^-1 furfural): not effective

O=S(O)(O)=S [thiosulfate, sodium thiosulfate]
relief of furfural inhibition of growth by alternative sulfur source (E. coli LY180 [3]; 1 g liter^-1 furfural): effective

Reference: patent publication US20120108855A1, “INCREASED EXPRESSION OF TRANSHYDROGENASE GENES AND THEIR USE IN ETHANOL PRODUCTION” (UNIVERSITY OF FLORIDA RESEARCH FOUNDATION, INC., priority 2009, published 2012)
